Results published in patent US20070265273A1, “Pyrimidin-2-Amine Derivatives and Their Use as A2b Adenosine Receptor Antagonists” (priority 2003, published 2007).
Where two headings read alike, the source gives them in different places.

What was measured:
[1] = target: T1, human recombinant A1 receptors (Homo sapiens, UniProt P30542); test: Adenosine 1 receptor subtype competition radioligand binding assay; conditions: 1 h, [3H]-DPCPX, CHO-K1 membranes, read-out: Binding human A1, % @ 1 μM (column headed Ki (nM))
T1 construct: host or cells: CHO-K1
T1 sequence (P30542 1-326): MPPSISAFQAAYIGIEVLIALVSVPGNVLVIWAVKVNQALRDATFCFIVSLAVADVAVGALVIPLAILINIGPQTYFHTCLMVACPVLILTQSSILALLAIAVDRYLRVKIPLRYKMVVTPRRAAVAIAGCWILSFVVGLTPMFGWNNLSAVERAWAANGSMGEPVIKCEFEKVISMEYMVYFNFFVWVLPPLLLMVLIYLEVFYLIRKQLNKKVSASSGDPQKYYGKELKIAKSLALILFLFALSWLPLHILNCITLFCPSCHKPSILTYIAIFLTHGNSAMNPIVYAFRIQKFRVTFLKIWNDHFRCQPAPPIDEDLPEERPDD
Method: Adenosine I Receptor Subtype Competition Radioligand Binding Assay
CHO-K1 cells expressing human recombinant A1 receptors were purchased from Euroscreen (Belgium). For membrane preparation, cells were collected from tissue culture plates using a cell scraper, resuspended in 10-15 ml of homogenization buffer (Tris-HCl 15 mM pH 7.5, MgCl2 2 mM, EDTA 0.3 mM, EGTA 1 mM), homogenized, and centrifuged at 40.000 g for 25 minutes. The resulting pellet was resuspended in the same buffer and centrifuged again for 25 minutes. Finally, the pellet was resuspended in 500 μl of storage buffer (Tris-HCl 7.5 mM pH 7.5, MgCl2 12.5 mM, EDTA 0.3 mM, EGTA 1 mM, sucrose 250 mM) where the total protein content was determined.
Competition assays were carried out incubating 15 μg of A1-membrane preparations, 2 nM [^3H]-DPCPX (Amersham) as radioligand and 10 μM of unlabeled DPCPX ligand, in a total volume of 100 μl of buffer (Hepes 20 mM pH 7.4, NaCl 100 mM, MgCl2 10 mM, 2 U/ml adenosin deaminase) for 1 h at 25° C. Samples were filtered and washed 4 times with 250 μl of buffer (Hepes 20 mM pH 7.4, NaCl 100 mM, MgCl2 10 mM) using plates (Millipore MAFCN0B50) preincubated for 15 min. in 250 μl of the same buffer. Samples were counted using 30 μl of LSC Universol (ICN) in a Wallac 1450 Microbeta counter. Non specific binding was tested using 10 μM R-PIA.

[2] = target: T2, human recombinant A2A receptor (Homo sapiens, UniProt P29274); test: Adenosine 2A receptor subtype competition radioligand binding assay; conditions: [3H]-ZM241385, Hela cell membranes
T2 construct: expressed in transfected cells; host or cells: HeLa (stably transfected)
Method: Adenosine 2A Receptor Subtype Competition Radioligand Binding Assay
(§1) Membranes were prepared from Hela cells stably transfected with the human recombinant A2A receptor. For membrane preparation, cells were collected from tissue culture plates using a cell scraper, resuspended in 10-15 ml homogenization buffer (Tris-HCl 5 mM, EDTA 2 mM), homogenized, and centrifuged at 1.000 g. for 10 min. at 4° C. The supernatant was then recovered and centrifuged at 50.000 g for 1 h. at 4° C. Finally, the pellet was resuspended in 100-500 μl storage buffer (Tris-HCl 50 mM pH 7.4) where the total protein content was determined.
Competition assays were carried out incubating 5 μg of A2A-membranes, 3 nM [^3H]-ZM241385 (Tocris) as radioligand and 50 μM of unlabeled ZM241385 ligand, in a total volume of 100 μl of buffer (TrisHCl 50 μM pH 7.4, EDTA 1 mM, MgCl2 10 mM, 2 U/ml adenosin deaminase) for 30 minutes at 25° C. Samples were then filtered and washed 4 times with 250 μl of buffer (TrisHCl 50 μM pH 7.4, EDTA 1 mM, MgCl2 10 mM) using plates (Millipore MAFCN0B50) preincubated for 15 min. in 250 μl of the same buffer. Samples were counted using 30 μl of LSC Universol (ICN) in a Wallac 1450 Microbeta counter. Non specific binding was tested using 50 μM NECA.

[3] = target: T3, human recombinant A3 receptor (Homo sapiens, UniProt P0DMS8); test: Adenosine 3 receptor subtype competition radioligand binding assay
T3 construct: expressed in transfected cells; host or cells: HeLa (stably transfected)
T3 sequence (P0DMS8 1-318): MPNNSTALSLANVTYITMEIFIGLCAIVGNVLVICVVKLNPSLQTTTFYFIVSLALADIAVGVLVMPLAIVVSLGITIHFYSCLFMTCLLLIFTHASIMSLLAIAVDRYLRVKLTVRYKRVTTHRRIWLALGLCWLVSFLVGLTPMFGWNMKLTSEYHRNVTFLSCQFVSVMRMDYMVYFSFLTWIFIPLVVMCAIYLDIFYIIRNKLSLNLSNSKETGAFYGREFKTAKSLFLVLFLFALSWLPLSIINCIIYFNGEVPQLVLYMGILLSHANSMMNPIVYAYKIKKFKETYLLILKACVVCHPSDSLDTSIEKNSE
Method: Adenosine 3 Receptor Subtype Competition Radioligand Binding Assay
as §1, with “A3” for “A2A”, “ml of” for “ml”, “μl of” for “μl”
Competition assays were carried out incubating 100 μg of A3-membranes, 30 nM [^3H]-NECA (Amersham) as radioligand and 50 μM of unlabeled NECA ligand, in a total volume of 100 μl of buffer (Tris-HCl 50 mM pH 7.4, MgCl2 5 mM, EDTA 1 mM, 2 U/ml adenosine deaminase) for 3 hours at 25° C. Samples were filtered 4 times with 250 μl of buffer (Tris-HCl 50 mM pH 7.4) using plates (Millipore MAFBN0B50) preincubated for 15 min. in 250 μl of the same buffer. Samples were counted using 30 μl of LSC Universol (ICN) in a Wallac 1450 Microbeta counter. Non specific binding was tested using 100 μM of R-PIA.

[4] = [3H]-NECA, Hela cell membranes, read-out: Binding human A3 Ki

T2 sequence (P29274 whole entry): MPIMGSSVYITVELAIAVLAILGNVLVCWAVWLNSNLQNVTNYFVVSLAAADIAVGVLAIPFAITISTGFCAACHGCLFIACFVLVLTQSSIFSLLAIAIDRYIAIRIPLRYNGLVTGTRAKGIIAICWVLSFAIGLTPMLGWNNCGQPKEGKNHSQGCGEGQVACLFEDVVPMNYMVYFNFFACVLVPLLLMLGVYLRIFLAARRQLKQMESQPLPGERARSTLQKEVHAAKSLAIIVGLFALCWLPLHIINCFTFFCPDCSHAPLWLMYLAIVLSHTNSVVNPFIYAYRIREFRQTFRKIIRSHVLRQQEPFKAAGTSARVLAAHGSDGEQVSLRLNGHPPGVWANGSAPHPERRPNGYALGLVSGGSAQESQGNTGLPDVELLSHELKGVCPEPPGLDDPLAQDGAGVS

SMILES | inhibition at 1 µM [1] [%] | Binding human A2A, % @ 1 μM (column headed Ki (nM)) [2] [% @ 1 μM] | Ki [3, 4] [nM] | Ki [2] [nM] | Ki [3] [nM]
c1cncc(Nc2ncc(-c3ccnnc3)c(-c3ccco3)n2)c1 [Example 11, 4-(2-Furyl)-5-pyridazin-4-yl-N-pyridin-3-ylpyrimidin-2-amine] | 23 | 17 | 407 |  | 
O=c1ccc(Nc2ncc(-c3ccncn3)c(-c3ccco3)n2)c[nH]1 [Example 21, 5-{[4′-(2-Furyl)-4,5′-bipyrimidin-2′-yl]amino}pyridin-2(1H)-one] | 0 | 0 | 2790 |  | 
c1coc(-c2nc(Nc3cncnc3)ncc2-c2ccncn2)c1 [Example 13, 4′-(2-Furyl)-N-pyrimidin-5-yl-4,5′-bipyrimidin-2′-amine] | 3 | 15 | 1440 |  | 
[O-][n+]1cccc(Nc2ncc(-c3ccncn3)c(-c3ccco3)n2)c1 [Example 12, 4′-(2-Furyl)-N-(1-oxidopyridin-3-yl)-4,5′-bipyrimidin-2′-amine] | 4 | 7 | 846 |  | 
Fc1ccc(Nc2ncc(-c3ccncn3)c(-c3ccco3)n2)cn1 [Example 4, N-(6-Fluoropyridin-3-yl)-4′-(2-furyl)-4,5′-bipyrimidin-2′-amine] | 30 | 21 | 1690 |  | 
c1cncc(Nc2ncc(-c3ccncn3)c(-c3cccs3)n2)c1 [Example 6, N-Pyridin-3-yl-4′-thien-2-yl-4,5′-bipyrimidin-2′-amine] | 31 |  | 310 | 620 | 
COc1ccc(Nc2ncc(-c3ccncn3)c(-c3ccco3)n2)cn1 [Example 2, 4′-(2-Furyl)-N-(6-methoxypyridin-3-yl)-4,5′-bipyrimidin-2′-amine] | 5 | 14 |  |  | 4320
c1cncc(Nc2ncc(-c3ccncn3)c(-c3ccco3)n2)c1 [Example 1, 4′-(2-Furyl)-N-pyridin-3-yl-4,5′-bipyrimidin-2′-amine] | 14 |  | 1100 | 2540 | 
